Measured values from patent US8575091B1, “Amylin analogues and pharmaceutical compositions thereof” (Novo Nordisk A/S, priority 2012, dated 2013).
Read-outs that look alike come from different tables or passages of the source. Numbered stars: 1 amine (or outer) side, 2 acyl side, 3 side chain; on linkers, the order of the positions; unused ones are H or OH. Bridge positions count the residues as written; N and C are the ends. Side chains are listed from the residue outwards. Peptide text beside a SMILES is read from it. * marks the point of attachment. C20 diacid = O=C(O)CCCCCCCCCCCCCCCCCCC(=O)*; γGlu = O=C(O)[C@H](CCC(=O)[*:2])N[*:1]

Experiments:
[1] = molecular target: T1, human calcitonin receptor (Homo sapiens, UniProt P30988); assay: Assay (VII) binding to the human calcitonin receptor (SPA, 125I-Calcitonin); conditions: read-out: hCTR bind IC50;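 also: cell membranes coupled to SPA beads, competitive displacement read by scintillation counting, IC50 derived from a one-site competition fit as a measure of receptor affinity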
T1 construct: expressed in transfected cells
T1 sequence (P30988 25-474): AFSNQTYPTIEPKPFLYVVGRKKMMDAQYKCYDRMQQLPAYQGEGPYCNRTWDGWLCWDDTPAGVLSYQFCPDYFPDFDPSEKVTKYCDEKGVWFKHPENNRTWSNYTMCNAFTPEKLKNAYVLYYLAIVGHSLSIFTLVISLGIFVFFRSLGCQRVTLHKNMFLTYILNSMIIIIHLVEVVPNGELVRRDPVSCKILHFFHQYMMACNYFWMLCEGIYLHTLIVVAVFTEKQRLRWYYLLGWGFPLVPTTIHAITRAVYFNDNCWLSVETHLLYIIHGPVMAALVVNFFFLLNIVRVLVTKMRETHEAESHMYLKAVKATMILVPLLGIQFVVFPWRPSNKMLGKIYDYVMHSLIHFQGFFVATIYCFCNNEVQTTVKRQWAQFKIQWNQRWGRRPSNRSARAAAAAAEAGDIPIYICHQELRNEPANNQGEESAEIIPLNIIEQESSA

[2] = molecular target: T1, human calcitonin receptor; assay: Assay (II)a functional assay, human calcitonin receptor (CRE luciferase, BHK cells);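 also: luminescence from a CRE-driven luciferase reporter, read by single photon counting after cells were exposed to test samples for 3 h at 37 °C under 5% CO2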; type: cell-based; conditions: read-out: hCTR funct. EC50
[3] = molecular target: T2, human amylin receptor (amylin 3(a) receptor: human calcitonin receptor + RAMP-3) (Homo sapiens, UniProt O60896+P30988); assay: Assay (II)a functional assay, human amylin receptor (CRE luciferase, BHK cells); type: cell-based; conditions: for EC50: read-out: hAmylin-R funct. EC50
T2 construct: expressed in transfected cells
T2 sequence (P30988 25-474): T1 sequence (P30988 25-474)
T2 sequence (O60896 24-148 partner): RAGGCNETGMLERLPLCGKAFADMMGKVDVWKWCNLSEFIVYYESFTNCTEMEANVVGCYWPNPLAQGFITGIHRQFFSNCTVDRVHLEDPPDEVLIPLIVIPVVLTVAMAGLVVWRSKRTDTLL

[4] = molecular target: T3, human amylin receptor (Homo sapiens, UniProt O60896+P30988); assay: Assay (V) binding to the human amylin receptor (SPA, 125I-rat amylin); conditions: human amylin receptor membranes, SPA; read-out: hAmylin-R bind IC50
T3 construct: expressed in transfected cells
T3 sequence (P30988 25-474): T1 sequence (P30988 25-474)
T3 sequence (O60896 24-148 partner): T2 sequence (O60896 24-148 partner)
Method in brief: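 SPA competition binding on membranes from Amylin 3(a)/CRE-luc cells, 35 ng/μL membranes with 0.05 mg/well beads. Buffer 50 mM Hepes pH 7.4, 1 mM CaCl2, 5 mM MgCl2, 0.1% OA, 0.02% Tween20. IC50 from one-site competition fit as affinity measure.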

[5] = Table 6, human functional selectivity (hCTR EC50 / hAmylin-R EC50)
[6] = functional assay, human amylin receptor
[7] = Table 6a, human functional selectivity (hCTR EC50 / hAmylin-R EC50), at least 5
[8] = Table 6j, hCTR funct. EC50 / hAmylin-R funct. EC50
[9] = Table 6k, hCTR funct. EC50 / hAmylin-R funct. EC50

IC50 [1] | EC50 [2] | Ratio hCT/hAmylin funct. [3, 5] | EC50 [3, 6] | IC50 [4] | Ratio hCT/hAmylin funct. [3, 7] | Ratio hCT/hAmylin funct. ([3]; Table 6i, hCTR funct. EC50 / hAmylin-R funct. EC50) | EC50 ([3]; Table 6i, human amylin receptor functional) | Ratio hCT/hAmylin funct. [3, 8] | Ratio hCT/hAmylin funct. [3, 9] | SMILES
2.04 nM | 0.345 nM | 4.9 | 0.071 nM | 0.082 nM |  |  |  |  |  | CC[C@H](C)[C@H](NC(=O)[C@H](C)NC(=O)CNC(=O)[C@H](Cc1ccccc1)NC(=O)[C@H](CC(N)=O)NC(=O)[C@@H]1CCCN1C(=O)[C@H](CO)NC(=O)[C@H](CO)NC(=O)[C@H](Cc1c[nH]cn1)NC(=O)[C@H](CCCNC(=N)N)NC(=O)[C@H](CC(C)C)NC(=O)[C@H](Cc1ccccc1)NC(=O)[C@H](Cc1c[nH]cn1)NC(=O)[C@H](C)NC(=O)[C@H](CC(C)C)NC(=O)[C@H](CCCNC(=N)N)NC(=O)[C@H](CCC(N)=O)NC(=O)[C@@H](NC(=O)[C@H](C)NC(=O)[C@@H]1CSSC[C@H](NC(=O)[C@@H](N)CCCCNC(=O)CC[C@H](NC(=O)CCCCCCCCCCCCCCCCCCC(=O)O)C(=O)O)C(=O)N[C@@H](CC(N)=O)C(=O)N[C@@H]([C@@H](C)O)C(=O)N[C@@H](C)C(=O)N[C@@H]([C@@H](C)O)C(=O)N1)[C@@H](C)O)C(=O)N1CCC[C@H]1C(=O)N[C@@H](CO)C(=O)N[C@@H](CO)C(=O)N[C@H](C(=O)N1CCC[C@H]1C(=O)N[C@H](C(=O)NCC(=O)N1CCC[C@H]1C(=O)N[C@@H](CC(N)=O)C(=O)N[C@H](C(=O)N[C@@H](Cc1ccc(O)cc1)C(N)=O)[C@@H](C)O)C(C)C)[C@@H](C)O [Example 116] (H-K([γGlu-C20 diacid])CNTATCATQRLAHFLRHSSPNFGAIPSSTPVGPNTY-NH2; disulfide 2-7)
17.1 nM | 2.21 nM | 6.1 |  | 0.894 nM | 6.1 | 6.1 | 0.363 nM | 6.1 | 6.1 | CC[C@H](C)[C@H](NC(=O)[C@H](C)NC(=O)CNC(=O)[C@H](Cc1ccccc1)NC(=O)[C@H](CC(N)=O)NC(=O)[C@@H]1CCCN1C(=O)[C@H](CO)NC(=O)[C@H](CO)NC(=O)[C@H](Cc1c[nH]cn1)NC(=O)[C@H](CCCNC(=N)N)NC(=O)[C@H](CC(C)C)NC(=O)[C@H](Cc1ccccc1)NC(=O)[C@H](CCC(=O)O)NC(=O)[C@H](C)NC(=O)[C@H](CC(C)C)NC(=O)[C@H](CCCNC(=N)N)NC(=O)[C@H](CCC(N)=O)NC(=O)[C@@H](NC(=O)[C@H](C)NC(=O)[C@@H]1CSSC[C@H](NC(=O)[C@H](CCCCN)NC(=O)CC[C@H](NC(=O)CCCCCCCCCCCCCCCCCCC(=O)O)C(=O)O)C(=O)N[C@@H](CC(N)=O)C(=O)N[C@@H]([C@@H](C)O)C(=O)N[C@@H](C)C(=O)N[C@@H]([C@@H](C)O)C(=O)N1)[C@@H](C)O)C(=O)N1CCC[C@H]1C(=O)N[C@@H](CO)C(=O)N[C@@H](CO)C(=O)N[C@H](C(=O)N[C@@H](CC(N)=O)C(=O)N[C@H](C(=O)NCC(=O)N[C@@H](CO)C(=O)N[C@@H](CCCNC(=N)N)C(=O)N[C@H](C(=O)N[C@@H](Cc1ccc(O)cc1)C(N)=O)[C@@H](C)O)C(C)C)[C@@H](C)O [Example 16] ({C20 diacid-γGlu}-KCNTATCATQRLAEFLRHSSPNFGAIPSSTNVGSRTY-NH2; disulfide 2-7)
6.74 nM | 1.63 nM |  | 0.084 nM | 0.091 nM |  |  |  |  |  | CC[C@H](C)[C@H](NC(=O)[C@H](C)NC(=O)CNC(=O)[C@H](Cc1ccccc1)NC(=O)[C@H](CC(N)=O)NC(=O)[C@@H]1CCCN1C(=O)[C@H](CO)NC(=O)[C@H](CO)NC(=O)[C@H](Cc1c[nH]cn1)NC(=O)[C@H](CCCNC(=N)N)NC(=O)[C@H](CC(C)C)NC(=O)[C@H](Cc1ccccc1)NC(=O)[C@H](CC(N)=O)NC(=O)[C@H](C)NC(=O)[C@H](CC(C)C)NC(=O)[C@H](CCCNC(=N)N)NC(=O)[C@H](CCC(N)=O)NC(=O)[C@@H](NC(=O)[C@H](C)NC(=O)[C@@H]1CSSC[C@H](NC(=O)[C@@H](N)CCCCNC(=O)COCCOCCNC(=O)COCCOCCNC(=O)CC[C@H](NC(=O)CCCCCCCCCCCCCCCCCCC(=O)O)C(=O)O)C(=O)N[C@@H](CC(N)=O)C(=O)N[C@@H]([C@@H](C)O)C(=O)N[C@@H](C)C(=O)N[C@@H]([C@@H](C)O)C(=O)N1)[C@@H](C)O)C(=O)N1CCC[C@H]1C(=O)N[C@@H](CO)C(=O)N[C@@H](CO)C(=O)N[C@H](C(=O)N[C@@H](CC(N)=O)C(=O)N[C@H](C(=O)NCC(=O)N1CCC[C@H]1C(=O)N[C@@H](CC(N)=O)C(=O)N[C@H](C(=O)N[C@@H](Cc1ccc(O)cc1)C(N)=O)[C@@H](C)O)C(C)C)[C@@H](C)O [Example 98]
26.1 nM | 5.58 nM |  | 0.425 nM | 0.992 nM |  |  |  |  |  | CC[C@H](C)[C@H](NC(=O)[C@H](C)NC(=O)CNC(=O)[C@H](Cc1ccccc1)NC(=O)[C@H](CC(N)=O)NC(=O)[C@@H]1CCCN1C(=O)[C@H](CO)NC(=O)[C@H](CO)NC(=O)[C@H](Cc1c[nH]cn1)NC(=O)[C@H](CCCNC(=N)N)NC(=O)[C@H](CC(C)C)NC(=O)[C@H](Cc1ccccc1)NC(=O)[C@H](CCC(=O)O)NC(=O)[C@H](C)NC(=O)[C@H](CC(C)C)NC(=O)[C@H](CCCNC(=N)N)NC(=O)[C@H](CCC(N)=O)NC(=O)[C@@H](NC(=O)[C@H](C)NC(=O)[C@@H]1CSSC[C@H](NC(=O)[C@@H](N)CCCCNC(=O)CC[C@H](NC(=O)CCCCCCCCCCCCCCCCCCC(=O)O)C(=O)O)C(=O)N[C@@H](CC(N)=O)C(=O)N[C@@H]([C@@H](C)O)C(=O)N[C@@H](C)C(=O)N[C@@H]([C@@H](C)O)C(=O)N1)[C@@H](C)O)C(=O)N1CCC[C@H]1C(=O)N[C@@H](CO)C(=O)N[C@@H](CO)C(=O)N[C@H](C(=O)N[C@@H](CC(N)=O)C(=O)N[C@H](C(=O)NCC(=O)N[C@@H](CO)C(=O)N[C@@H](Cc1c[nH]cn1)C(=O)N[C@H](C(=O)N[C@@H](Cc1ccc(O)cc1)C(N)=O)[C@@H](C)O)C(C)C)[C@@H](C)O [Example 128] (H-K([γGlu-C20 diacid])CNTATCATQRLAEFLRHSSPNFGAIPSSTNVGSHTY-NH2; disulfide 2-7)
12 nM | 1.48 nM |  | 0.04 nM | 0.119 nM |  |  |  |  |  | CC[C@H](C)[C@H](NC(=O)[C@H](C)NC(=O)CNC(=O)[C@H](Cc1ccccc1)NC(=O)[C@H](CC(N)=O)NC(=O)[C@@H]1CCCN1C(=O)[C@H](CO)NC(=O)[C@H](CO)NC(=O)[C@H](Cc1c[nH]cn1)NC(=O)[C@H](CCCNC(=N)N)NC(=O)[C@H](CC(C)C)NC(=O)[C@H](Cc1ccccc1)NC(=O)[C@H](CC(N)=O)NC(=O)[C@H](C)NC(=O)[C@H](CC(C)C)NC(=O)[C@H](CCCNC(=N)N)NC(=O)[C@H](CCC(N)=O)NC(=O)[C@@H](NC(=O)[C@H](C)NC(=O)[C@@H]1CSSC[C@H](NC(=O)[C@@H](N)CCCCNC(=O)COCCOCCNC(=O)CCCCCCCCCCCCCCCCCCC(=O)O)C(=O)N[C@@H](CC(N)=O)C(=O)N[C@@H]([C@@H](C)O)C(=O)N[C@@H](C)C(=O)N[C@@H]([C@@H](C)O)C(=O)N1)[C@@H](C)O)C(=O)N1CCC[C@H]1C(=O)N[C@@H](CO)C(=O)N[C@@H](CO)C(=O)N[C@H](C(=O)N[C@@H](CC(N)=O)C(=O)N[C@H](C(=O)NCC(=O)N[C@@H](Cc1c[nH]cn1)C(=O)N[C@@H](CC(N)=O)C(=O)N[C@H](C(=O)N[C@@H](Cc1ccc(O)cc1)C(N)=O)[C@@H](C)O)C(C)C)[C@@H](C)O [Example 91]
17.8 nM | 1.15 nM | 9.7 | 0.118 nM | 0.176 nM | 9.7 |  |  | 9.7 | 9.7 | CC[C@H](C)[C@H](NC(=O)[C@H](C)NC(=O)CNC(=O)[C@H](Cc1ccccc1)NC(=O)[C@H](CC(N)=O)NC(=O)[C@@H]1CCCN1C(=O)[C@H](CO)NC(=O)[C@H](CO)NC(=O)[C@H](Cc1c[nH]cn1)NC(=O)[C@H](CCCNC(=N)N)NC(=O)[C@H](CC(C)C)NC(=O)[C@H](Cc1ccccc1)NC(=O)[C@H](C)NC(=O)[C@H](C)NC(=O)[C@H](CC(C)C)NC(=O)[C@H](CCCNC(=N)N)NC(=O)[C@H](CCC(N)=O)NC(=O)[C@@H](NC(=O)[C@H](C)NC(=O)[C@@H]1CSSC[C@H](NC(=O)[C@@H](N)CCCCNC(=O)CC[C@H](NC(=O)CCCCCCCCCCCCCCCCCCC(=O)O)C(=O)O)C(=O)N[C@@H](CC(N)=O)C(=O)N[C@@H]([C@@H](C)O)C(=O)N[C@@H](C)C(=O)N[C@@H]([C@@H](C)O)C(=O)N1)[C@@H](C)O)C(=O)N1CCC[C@H]1C(=O)N[C@@H](CO)C(=O)N[C@@H](CO)C(=O)N[C@H](C(=O)N[C@@H](CC(N)=O)C(=O)N[C@H](C(=O)NCC(=O)N[C@@H](Cc1c[nH]cn1)C(=O)N[C@@H](CC(N)=O)C(=O)N[C@H](C(=O)N[C@@H](Cc1ccc(O)cc1)C(N)=O)[C@@H](C)O)C(C)C)[C@@H](C)O [Example 93] (H-K([γGlu-C20 diacid])CNTATCATQRLAAFLRHSSPNFGAIPSSTNVGHNTY-NH2; disulfide 2-7)
